From patent US12268665B2, “Combination of immunotherapies with MDM2 inhibitors” (ASCENTAGE PHARMA (SUZHOU) CO., LTD., priority 2018, dated 2025)
Read-outs that look alike come from different tables or passages of the source.

Legend:
[1] = tested on: MH-22A murine hepatoma syngeneic model; experiment: In vivo efficacy study in MH-22A model; set-up: species or system mouse
Description: Tumor volumes were measured twice weekly in two dimensions using a caliper, and the volume was expressed in mm^3 using the formula: Tumor Volume(mm^3)=0.5a×b^2 where a and b are the long and short diameters of the tumor, respectively.
Relative tumor volume (RTV) was calculated using the following formula: RTV=Vt/V1 Where V1 and Vt are the average tumor volumes on the first day of treatment (day 1) and the average tumor volumes on a certain time point (day t).
Synergy score was calculated using the following formula (Clarke R, Breast Cancer Research & Treatment, 1997, 46(2-3):255-278): Synergy score=((A/C)×(B/C))/(AB/C); A: response to treatment A; B: response to treatment B; C: response to vehicle control; AB: combination of treatment A and B.
Standard NCI procedures were used to calculate tumor parameters. Percent tumor growth inhibition (% T/C) was calculated as the mean RTV of treated tumors (T) divided by the mean RTV of control tumors (C)×100%. The percentage T/C value is an indication of antitumor effectiveness: a value of T/C<42% is considered significant antitumor activity by the NCI. A T/C value <10% is considered to indicate highly significant antitumor activity, and is the level used by the NCI to justify a clinical trial if toxicity and certain other requirements are met (termed DN-2 level activity). A body weight loss nadir (mean of group) of greater than 20%, or greater than 20% of drug deaths are considered to indicate an excessively toxic dosage.
(§1) Each mouse was inoculated subcutaneously at the right flank region with MH-22A tumor cells (5×10^6) in 0.2 mL of PBS for tumor development. The treatments were initiated when the mean tumor size reached ˜65 mm^3. The test articles were administered to the tumor-bearing mice according to the regimen shown in the experimental design Table 3. The day of start dosing was defined as d1.

[2] = Pharmacokinetic (PK) analysis in MH-22A tumor-bearing mice (LC/MS/MS); type: in vivo, mouse; conditions: mouse; for concentration at 4 h: oral, 100 mg/kg
Description: The quantitative LC/MS/MS analysis was conducted using an Exion HPLC system (AB Sciex, Ontario, Canada) coupled to an API 5500 mass spectrometer (AB Sciex, Ontario, Canada) equipped with an API electrospray ionization (ESI) source. The Phenomenex Titank phenyl-Hexyl column (50 mm×2.1 mm, 5 μm particle size) was used to achieved HPLC separation. The injection volume was 2 μl and the flow rate was kept constantly at 0.5 ml/min. Chromatography was performed with mobile phase A, acetonitrile:water:formic (5:95:0.1, by volume) and B, acetonitrile:water:formic (95:5:0.1, by volume). The mass spectrometer was operated at ESI positive ion mode for APG-115 while ESI negative mode for epacadostat. The detection of the ions was performed in the multiple reaction monitoring (MRM) mode, monitoring the transition of m/z 642.0→246.1 and 271.1→172.0 for APG-115 and IS (tolbutamide) in positive mode, 435.9→338.8 and 269.2→169.2 for epacadostat and IS (tolbutamide) in negative mode, respectively. Compounds parameters, declustering potential (DP), collision energy (CE) were 51, 61 V, 80, 18 V for APG-115 and IS in positive mode, −61, −15 V and −90, −23.5 V for epacadostat and IS in negative mode, respectively.
Blood and tumor samples were collected from 5 mice/group in group-1, group-2, group-3 and group-5 4 hrs after the final dose on […]. Blood samples were collected from 5 mice/group in group-4, group-6, group-7 and group-8 4 hrs after the final dose on d29. Approximately 100 μl blood were collected in EDTA-2K tube and 50 μl plasma were collected for PK analysis. All samples were stored at −80° C. until analysis.
In efficacy study of Example 2.1, mice in vehicle, APG-115 10 mg/kg and 50 mg/kg, and epacadostat single-agent groups were euthanized on d15 as described above. To assess PK characteristics of APG-115 and epacadostat in this study, plasma and tissue samples were collected 4 h after the last dosing on d15.

[3] = tested on: MH-22A syngeneic tumor model; experiment: Efficacy in the TIL analysis study, MH-22A model (d7); type: in vivo, mouse; conditions: APG-115 10 mg/kg p.o. q2d; anti-PD-1 5 mg/kg i.p. biw; epacadostat 100 mg/kg p.o. bid; × 6 d
Description: as §1, with “were started” for “were initiated”, “reached 60” for “reached ˜65”, “Table 6.” for “Table 3.”
Mice bearing MH-22A murine hepatoma tumors were treated with various agent(s) under different regimens as indicated. Isotype control antibody was included in the control.

[4] = APG-115 10 mg/kg p.o. qd, anti-PD-1 10 mg/kg i.p. biw, epacadostat 100 mg/kg p.o. bid

NS(=O)(=O)NCCNc1nonc1C(=NO)Nc1ccc(F)c(Br)c1 [epacadostat, reference compound]
RTV (Mean ± SEM) d15 [1, 4]: 49.1 ± 5.8 | T/C (%) d15 [1, 4]: 128% | Response rate (%) d15 ([1]; APG-115 10 mg/kg, anti-PD-1 10 mg/kg, epacadostat 100 mg/kg, n=10): 0% | antitumor activity as single agents ([1]; APG-115 10 and 50 mg/kg, epacadostat 100 mg/kg): did not exert antitumor activity | pharmacokinetic interaction with anti-PD-1 antibody ([2]; in vivo): no apparent pharmacokinetic interaction | concentration at 4 h ([2]; plasma, 100 mg/kg daily oral, alone, read-out: plasma concentration of epacadostat): 5890 ng/mL | concentration at 4 h ([2]; plasma, 100 mg/kg daily oral, combined with anti-PD-1, read-out: plasma concentration of epacadostat): 8620 ng/mL | concentration at 4 h ([2]; tumor, 100 mg/kg dosed alone, read-out: epacadostat concentration in tumor): 9260 ng/g | RTV (Mean) d7 [3]: 12.7 | T/C (%) d7 [3]: 82%
